Test results from patent US8952024B2, “Herbicidal pyrimidone derivatives” (E I du Pont de Nemours and Company, priority 2009, dated 2015).

Columns and labels:
Type in all cases: in vivo
[1] = system: barnyardgrass (Echinochloa crus-galli); assay: Test A pre-/postemergence plant response
Outline: (§1)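 Approximately ten days after concurrent pre- and postemergence spraying in a greenhouse, plants were compared with untreated controls and rated visually for injury, 0 = no effect to 100 = complete control. Preemergence spray was directed onto loam/sand soil; postemergence targeted 1–2 leaf seedlings.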

[2] = system: wheat (Triticum aestivum); assay: Test A pre-/postemergence plant response
Outline: as §1

[3] = system: pigweed (Amaranthus retroflexus); assay: Test A pre-/postemergence plant response
Outline: as §1

corn (Zea mays) = assay: Test A pre-/postemergence plant response
Outline: as §1

[4] = system: velvetleaf (Abutilon theophrasti); assay: Test A pre-/postemergence plant response
Outline: as §1

[5] = system: large crabgrass (Digitaria sanguinalis); assay: Test A pre-/postemergence plant response
Outline: as §1

[6] = system: giant foxtail (Setaria faberii); assay: Test A pre-/postemergence plant response
Outline: as §1

[7] = system: morningglory (Ipomoea spp.); assay: Test A pre-/postemergence plant response
Outline: as §1

[8] = system: winter barley (Hordeum vulgare); assay: Test B postemergence plant response; details: Postemergence
Outline: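 Plants at the 1- to 4-leaf stage (2 to 18 cm tall), grown in pots of peat moss/vermiculite medium with wetting agent and starter nutrients, received postemergence applications of test chemicals. After 13 to 15 days in a greenhouse, injury was rated visually against untreated controls on a 0 (no effect) to 100 (complete control) scale.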

[9] = system: barnyardgrass (Echinochloa crus-galli); assay: Test B flooded paddy test; details: for Plant response rating, Barnyardgrass: Flood (flooded paddy test), 13 to 15 days
Outline: (§2)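 Flooded-pot test: water raised to 3 cm above soil when treating, compound put in the water, level unchanged thereafter. Plants were at 2 leaves. Readout after 13 to 15 days, visual, relative to controls; 0 signifies no effect and 100 complete control.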

[10] = system: umbrella sedge (Cyperus difformis); assay: Test B flooded paddy test; details: for Plant response rating, Sedge, Umbrella: Flood (flooded paddy test), 13 to 15 days
Outline: as §2

[11] = system: ducksalad (Heteranthera limosa); assay: Test B flooded paddy test; details: for Plant response rating, Ducksalad: Flood (flooded paddy test), 13 to 15 days
Outline: as §2

rice (Oryza sativa) = assay: Test B flooded paddy test; details: for Plant response rating, Rice: Flood (flooded paddy test), 13 to 15 days
Outline: as §2

[12] = Postemergence, 125 g ai/ha, visual injury, 0 to 100 scale (0 no effect, 100 complete control), approx. ten days
[13] = Postemergence, 500 g ai/ha, 0 to 100 scale, 0 = no effect, 100 = complete control, approx. ten days
[14] = Preemergence, 125 g ai/ha, 0 to 100 scale, 0 = no effect, 100 = complete control
[15] = Preemergence, 500 g ai/ha, visual injury, 0 to 100 scale (0 no effect, 100 complete control), approx. ten days
[16] = 250 g ai/ha, flooded paddy test, visual rating on 0 to 100 scale (0 no effect, 100 complete control) after 13 to 15 days
[17] = 31 g ai/ha, scale of 0 to 100 where 0 is no effect and 100 is complete control
[18] = 62 g ai/ha, scale 0 to 100, 0 is no effect, 100 is complete control
[19] = 125 g ai/ha, scale 0 to 100, 0 is no effect, 100 is complete control

O=C1CCCC(O)=C1C(=O)c1cnc(-c2ccccc2)n(-c2cccc(Br)c2)c1=O [Compound 38]
Barnyardgrass plant response rating [1, 12]: 60 | Plant response rating, Barnyardgrass [1, 13]: 90 | Plant response rating, Barnyardgrass [1, 14]: 10 | Plant response rating, Barnyardgrass [1, 15]: 90 | Wheat plant response rating [2, 12]: 0 | Plant response rating, Wheat [2, 13]: 40 | Plant response rating, Wheat [2, 14]: 0 | Plant response rating, Wheat [2, 15]: 20 | Pigweed plant response rating [3, 12]: 100 | Plant response rating, Pigweed [3, 13]: 100 | Plant response rating, Pigweed [3, 14]: 50 | Plant response rating, Pigweed [3, 15]: 100 | Corn plant response rating (corn (Zea mays); [12]): 0 | Plant response rating, Corn (corn (Zea mays); [13]): 60 | Plant response rating, Corn (corn (Zea mays); [14]): 0 | Plant response rating, Corn (corn (Zea mays); [15]): 30 | Velvetleaf plant response rating [4, 12]: 100 | Plant response rating, Velvetleaf [4, 13]: 100 | Plant response rating, Velvetleaf [4, 14]: 70 | Plant response rating, Velvetleaf [4, 15]: 100 | Crabgrass, Large plant response rating [5, 12]: 60 | Plant response rating, Crabgrass, Large [5, 13]: 100 | Plant response rating, Crabgrass, Large [5, 14]: 30 | Plant response rating, Crabgrass, Large [5, 15]: 100 | Foxtail, Giant plant response rating [6, 12]: 50 | Plant response rating, Foxtail, Giant [6, 13]: 90 | Plant response rating, Foxtail, Giant [6, 14]: 10 | Plant response rating, Foxtail, Giant [6, 15]: 80 | Morningglory plant response rating [7, 12]: 100 | Plant response rating, Morningglory [7, 13]: 100 | Plant response rating, Morningglory [7, 14]: 0 | Plant response rating, Morningglory [7, 15]: 70 | Plant response rating, Barley ([8]; 31 g ai/ha, scale 0 to 100 (0 no effect, 100 complete control)): 0 | Plant response rating, Barley ([8]; 62 g ai/ha, scale 0 (no effect) to 100 (complete control), 13 to 15 days): 0 | Plant response rating, Barley ([8]; 125 g ai/ha, visual rating after 13 to 15 days, scale 0 (no effect) to 100 (complete control)): 0 | Barley plant response rating ([8]; 250 g ai/ha, scale 0 to 100): 35 | Plant response rating, Flood, Barnyardgrass [9, 16]: 0 | Plant response rating, Barnyardgrass [9, 17]: 0 | Plant response rating, Barnyardgrass [9, 18]: 0 | Plant response rating, Barnyardgrass [9, 19]: 0 | Plant response rating, Flood, Sedge, Umbrella [10, 16]: 40 | Plant response rating, Sedge, Umbrella [10, 17]: 0 | Plant response rating, Sedge, Umbrella [10, 18]: 0 | Plant response rating, Sedge, Umbrella [10, 19]: 30 | Plant response rating, Flood, Ducksalad [11, 16]: 65 | Plant response rating, Ducksalad [11, 17]: 0 | Plant response rating, Ducksalad [11, 18]: 20 | Plant response rating, Ducksalad [11, 19]: 60 | Plant response rating, Flood, Rice (rice (Oryza sativa); [16]): 0 | Plant response rating, Rice (rice (Oryza sativa); [17]): 0 | Plant response rating, Rice (rice (Oryza sativa); [18]): 0 | Plant response rating, Rice (rice (Oryza sativa); [19]): 0
